Experiments:
H841 SCLC cells = assay: Cell growth inhibition assay, H841 SCLC cells; assay type: cell-based; conditions: NCI-H841, 504 h; H841 cell line, 21 days of treatment; read-out: inhibition of cell proliferation, mean IC50
Experimental: COR-L88 (92031917) cells were purchased from ECACC. […] No. 1565565).
H841, H446 and H69 cells were plated in their recommended complete culture medium described above (1 mL/well) in triplicate 12 well plates for each cell line at a density of 100,000 cells per well. Plates were incubated overnight at 37° C. and 5% CO2. Compound 1 stock was prepared at 50 mM in DMSO and was dispensed to several single-use aliquots and stored at −20° C. To prepare the compound plate, Compound 1 was diluted to 3 mM in DMSO and then 3-fold serial dilution were made in DMSO (10 doses in total). […] On Day 21, cell morphology was observed under microscope and any morphology changes upon compound treatment were recorded. […] Cell viability was measured using according to manufacturer's instructions.
Based on the strong activity observed with Compound 1 in DMS114 cells (see example 1 above), the antiproliferative activity of Compound 1 was also tested in 3 additional SCLC cell lines, namely H841, H446 and H69 using the cell proliferation assay described above. Each cell line was treated with different concentrations of Compound 1 using a 10-point dose curve (1:3 dilution in DMSO) with 3 μM to 0.1 nM for 21 days and then assessed for cell viability. […]

[1] = system: H3K27Me3 in DMS114 tumors; assay: H3K27Me3 ELISA on histones of DMS114 xenograft tumors; assay type: in vivo, female NOD/SCID mice; conditions: Mus musculus, DMS-114, 1320 h; 300 mg/kg BID, tumors harvested at Day 55; read-out: maximum inhibition of H3K27Me3 in tumor samples
Experimental: Extracts were aliquoted and stored at −20° C. (short term) or −80° C. (long term). […] Data was analyzed using GraphPad Prism version 7.02.
The in vivo activity of Compound 1 against EZH2 in the DMS114 SCLC xenograft model was determined by measurement of the relative amount of cellular H3K27Me3 and Me2 levels with ELISA using the tumor tissue samples harvested at Day 55 from the study described in Example 3 above.

With `COc1cc(C)[nH]c(=O)c1CN1CCc2c(Cl)cc([C@H](OC)C3COC3)c(Cl)c2C1=O` [Compound 1, 5,8-dichloro-2-[(4-methoxy-6-methyl-2-oxo-1,2-dihydro-pyridin-3-yl)methyl]-7-[(R)-methoxy(oxetan-3-yl)methyl]-3,4-dihydroisoquinolin-1(2H)-one] the IC50 (H841 SCLC cells) was 73.2 nM and the inhibition at 300 mg/kg [1] was 96%.

Reference: patent publication US11529344B2, “EZH2 inhibitor combination therapies” (Pfizer Inc., priority 2017, dated 2022)
